Earlier results in patent US11504321B2, “Process of coloring keratinous material comprising the use of an organosilicon compound, an effect pigment, a further coloring compound and a film-forming polymer II” (Henkel AG & Co. KGaA, priority 2019, dated 2022).

Settings: for solubility in water: 25° C.

solubility in water (in words) (at 25° C.)	Compound	solubility in water
–	CCN(Cc1cccc(S(=O)(=O)[O-])c1)c1ccc(C(=C2C=CC(=[N+](CC)Cc3cccc(S(=O)(=O)[O-])c3)C=C2)c2ccccc2S(=O)(=O)[O-])cc1.[Na+].[Na+] [Acid Blue 9]	more than 20 % by weight
–	O=S(=O)([O-])c1ccc(N=Nc2c(O)ccc3ccccc23)cc1.[Na+] [Acid Orange 7, sodium salt of 4-[(2-hydroxy-1-naphthyl)azo]benzene sulphonate]	more than 7 g/L
–	Nc1cc(S(=O)(=O)[O-])cc2cc(S(=O)(=O)[O-])c(N=Nc3ccccc3)c(O)c12.[Na+].[Na+] [Acid Red 33, disodium salt of 5-amino-4-hydroxy-3-(phenylazo)-naphthalene-2,7-disulphonate]	2500 µg/mL
–	O=C([O-])c1c(Cl)c(Cl)c(Cl)c(Cl)c1-c1c2c(Br)cc(=O)c(Br)c-2oc2c(Br)c(O)cc(Br)c12.O=C([O-])c1c(Cl)c(Cl)c(Cl)c(Cl)c1-c1c2c(Br)cc(=O)c(Br)c-2oc2c(Br)c(O)cc(Br)c12.[Na+].[Na+] [Acid Red 92, disodium salt of 3,4,5,6-tetrachloro-2-(1,4,5,8-tetrabromo-6-hydroxy-3-oxoxanthen-9-yl)benzoic acid]	greater than 10 g/L
highly soluble in water	O=C([O-])C1=NN(c2ccc(S(=O)(=O)[O-])cc2)C(=O)C1N=Nc1ccc(S(=O)(=O)[O-])cc1.[Na+].[Na+].[Na+] (centres unmarked) [Acid Yellow 23, trisodium salt of 4,5-dihydro-5-oxo-1-(4-sulfophenyl)-4-((4-sulfophenyl)azo)-1H-pyrazole-3-carboxylic acid]	–
